Laboratory results as given in patent US4066762A, “Derivatives of 7-(2-substituted-2-hydroxyiminoacetamido)-3-(1-substituted tetrazol-5-yl thiomethyl-3-cephem-4-carboxylic acid” (SmithKline Corporation, priority 1976, dated 1978).
Values after ≈ are worked out from the molar mass of the structure shown. Where a name gives a salt, the structure may show the parent alone. Read-outs that look alike come from different tables or passages of the source.

Assays:
E. coli HH 33779 = test: MIC in vitro, E. coli HH 33779 (G-); assay type: cell-based; details: Escherichia coli, HH33779
Text: (§1) Table 1 contains minimum inhibitory concentrations in μg./ml. of a number of representative compounds compared with standard agents.

P. Mirabils PM 444 = test: MIC in vitro, P. Mirabils PM 444 (G-); assay type: cell-based
Text: as §1

Kleb. pneumoniae SK 4200 = test: MIC in vitro, Kleb. pneumoniae SK 4200 (G-); assay type: cell-based; details: Klebsiella pneumoniae, SK4200
Text: as §1

Strep. Faecalis HH 34358 = test: MIC in vitro, Strep. Faecalis HH 34358 (G+); assay type: cell-based; details: for MIC: Enterococcus faecalis
Text: as §1

S. Aureus HH 127 = test: MIC in vitro, S. Aureus HH 127 (G+); assay type: cell-based; details: Staphylococcus aureus
Text: as §1

Kleb. pneumoniae SK 1200 = test: MIC in vitro, Kleb. pneumoniae SK 1200 (G-); assay type: cell-based; details: Klebsiella pneumoniae, SK1200
Text: as §1

Entero. cloacae HH 31254 = test: MIC in vitro, Entero. cloacae HH 31254 (G-); assay type: cell-based; details: Enterobacter cloacae, HH31254
Text: as §1

S. villaluz SK 70390 = test: MIC in vitro, S. villaluz SK 70390 (G+); assay type: cell-based; details: read-out: MIC in vitro
Text: as §1

[1] = tested on: Entero. aerogenes ATCC 13048; test: MIC in vitro, Entero. aerogenes ATCC 13048 (G-); assay type: cell-based; details: Klebsiella aerogenes
Text: as §1

Salmonella ATCC 12176 = test: MIC in vitro, Salmonella ATCC 12176 (G-); assay type: cell-based; details: for MIC: Salmonella, ATCC12176, Salmonella ATCC 12176, G-
Text: as §1

Proteus morgani 179 = test: MIC in vitro, Proteus morgani 179 (G-); assay type: cell-based
Text: as §1

S. Aureus SK 23390 = test: MIC in vitro, S. Aureus SK 23390 (G+); assay type: cell-based; details: Staphylococcus aureus
Text: as §1

[2] = tested on: Serratia Marcescens ATCC 13880; test: MIC in vitro, Serratia Marcescens ATCC 13880 (G-); assay type: cell-based
Text: as §1

E. coli SK 12140 = test: MIC in vitro, E. coli SK 12140 (G-); assay type: cell-based; details: Escherichia coli, SK12140
Text: as §1

Pseudo Aeruginosa HH 63 = test: MIC in vitro, Pseudo Aeruginosa HH 63 (G-); assay type: cell-based
Text: as §1

Kleb. pneumo. 4200 = test: standard in vivo mouse protection test, Kleb. pneumo. 4200; details: sc
Protocol: (§2) C is 7β-(syn-2-hydroxyimino-2-phenylacetamido)-3-(1-sulfomethyltetrazol-5-ylthiomethyl)-3-cephem-4-carboxylic acid disodium salt. […] 4200; 25 mg./kg. against E. coli 12140; Compound B 45 mg./kg. against Kleb. and 43, >50 against E. coli.

E. coli 12140 = test: standard in vivo mouse protection test, E. coli 12140; details: s.c.
Protocol: as §2

[3] = P. Mirabils PM 444, G-, read-out: MIC in vitro
[4] = ATCC13048, Entero. aerogenes ATCC 13048, G-, read-out: MIC in vitro
[5] = ATCC13880, Serratia Marcescens ATCC 13880, G-, read-out: MIC in vitro
[6] = Escherichia coli, 12140, sc, read-out: ED50

| Structure (SMILES) | MIC (E. coli HH 33779) | MIC (P. Mirabils PM 444; [3]) | MIC (Kleb. pneumoniae SK 4200) | MIC (Strep. Faecalis HH 34358) | MIC (S. Aureus HH 127) | MIC (Kleb. pneumoniae SK 1200) | MIC (Entero. cloacae HH 31254) | MIC (S. villaluz SK 70390; S. villaluz SK 70390, G+) | MIC [1, 4] | MIC (Salmonella ATCC 12176) | MIC (Proteus morgani 179) | MIC (S. Aureus SK 23390) | MIC [2, 5] | MIC (E. coli SK 12140) | MIC (Pseudo Aeruginosa HH 63) | ED50 (Kleb. pneumo. 4200) | ED50 (E. coli 12140; [6]) | other results |
| --- | --- | --- | --- | --- | --- | --- | --- | --- | --- | --- | --- | --- | --- | --- | --- | --- | --- | --- |
| CO/N=C(\C(=O)N[C@@H]1C(=O)N2C(C(=O)O)=C(CSc3nnnn3CS(=O)(=O)O)CS[C@H]12)c1ccco1 [A, 7β-(syn-2-methoxyimino-2-α-furylacetamido)-3-(1-sulfomethyltetrazol-5-ylthiomethyl)-3-cephem-4-carboxylic acid disodium salt hydrate] | 1.6 µg/mL | 1.6 µg/mL | 0.8 µg/mL | 100 µg/mL | 3.1 µg/mL | 0.4 µg/mL | 0.8 µg/mL | > 200 µg/mL | 3.1 µg/mL | 0.4 µg/mL | 1.6 µg/mL | 3.1 µg/mL | 3.1 µg/mL | 0.8 µg/mL | 100 µg/mL |  |  | MIC (P. Mirabils PM 444; read-out: MIC in vitro, P. Mirabils PM 444, G-): 0.2 µg/mL; MIC in vitro (Strep. Faecalis HH 34358; disodium salt hydrate): 200 µg/mL; MIC in vitro (Salmonella ATCC 12176; Salmonella ATCC 12176, G-, disodium salt hydrate): 0.8 µg/mL; MIC ([2]; Serratia marcescens, ATCC13880, read-out: MIC in vitro, Serratia Marcescens ATCC 13880, G-): 6.3 µg/mL |
| Cc1nnc(SCC2=C(C(=O)O)N3C(=O)[C@@H](NC(=O)Cn4cnnn4)[C@H]3SC2)s1 [Cefazolin, reference compound] | 1.6 µg/mL (≈ 3.52 µM) | 3.1 µg/mL (≈ 6.82 µM) | 1.6 µg/mL (≈ 3.52 µM) | 6.3 µg/mL (≈ 13.9 µM) | 0.4 µg/mL (≈ 0.88 µM) | 0.4 µg/mL (≈ 0.88 µM) | 0.8 µg/mL (≈ 1.76 µM) |  | 1.6 µg/mL (≈ 3.52 µM) | 0.8 µg/mL (≈ 1.76 µM) | 200 µg/mL (≈ 440 µM) | 0.2 µg/mL (≈ 0.44 µM) | > 200 µg/mL | 0.8 µg/mL (≈ 1.76 µM) | > 200 µg/mL |  |  |  |
| CO[C@@]1(NC(=O)Cc2cccs2)C(=O)N2C(C(=O)O)=C(COC(N)=O)CS[C@@H]21 [Cefoxitin, reference compound] | 12.5 µg/mL (≈ 29.2 µM) | 6.3 µg/mL (≈ 14.7 µM) | 6.3 µg/mL (≈ 14.7 µM) | 200 µg/mL (≈ 468 µM) | 1.6 µg/mL (≈ 3.74 µM) | 3.1 µg/mL (≈ 7.25 µM) | 6.3 µg/mL (≈ 14.7 µM) | 100 µg/mL (≈ 234 µM) | 25 µg/mL (≈ 58.5 µM) | 3.1 µg/mL (≈ 7.25 µM) | 12.5 µg/mL (≈ 29.2 µM) | 3.1 µg/mL (≈ 7.25 µM) | 12.5 µg/mL (≈ 29.2 µM) | 6.3 µg/mL (≈ 14.7 µM) | > 200 µg/mL |  |  |  |
| CO/N=C(\C(=O)N[C@@H]1C(=O)N2C(C(=O)O)=C(COC(N)=O)CS[C@H]12)c1ccco1 [Cefuroxime, reference compound] | 6.3 µg/mL (≈ 14.8 µM) | 1.6 µg/mL (≈ 3.77 µM) | 6.3 µg/mL (≈ 14.8 µM) | 12.5 µg/mL (≈ 29.5 µM) | 0.8 µg/mL (≈ 1.89 µM) | 3.1 µg/mL (≈ 7.3 µM) | 3.1 µg/mL (≈ 7.3 µM) | > 200 µg/mL | 6.3 µg/mL (≈ 14.8 µM) | 3.1 µg/mL (≈ 7.3 µM) | 50 µg/mL (≈ 118 µM) | 1.6 µg/mL (≈ 3.77 µM) | 12.5 µg/mL (≈ 29.5 µM) | 6.3 µg/mL (≈ 14.8 µM) | > 200 µg/mL |  |  |  |
| CO/N=C(\C(=O)N[C@@H]1C(=O)N2C(C(=O)O)=C(CSc3nnnn3CS(=O)(=O)O)CS[C@H]12)c1ccccc1 [Compound B, 7β-(syn-2-methoxyimino-2-phenylacetamido)-3-(1-sulfomethyltetrazol-5-ylthiomethyl)-3-cephem-4-carboxylic acid disodium salt] | 6.3 µg/mL |  | 3.1 µg/mL | 25 µg/mL | 1.6 µg/mL | 3.1 µg/mL | 3.1 µg/mL |  |  | 1.6 µg/mL | 6.3 µg/mL | 1.6 µg/mL | 12.5 µg/mL | 6.3 µg/mL | 200 µg/mL | 45 mg/kg | 43 mg/kg | MIC (S. villaluz SK 70390): > 200 µg/mL; MIC ([1]; ATCC13048, read-out: MIC in vitro): 12.5 µg/mL; ED50 (E. coli 12140; disodium salt): > 50 mg/kg |
| O=C(O)C1=C(CSc2nnnn2CS(=O)(=O)O)CS[C@@H]2[C@H](NC(=O)/C(=N\O)c3ccccc3)C(=O)N12 [Compound C, 7β-(syn-2-hydroxyimino-2-phenylacetamido)-3-(1-sulfomethyltetrazol-5-ylthiomethyl)-3-cephem-4-carboxylic acid disodium salt] | 3.1 µg/mL |  | 1.6 µg/mL | 6.3 µg/mL | 0.8 µg/mL | 0.8 µg/mL | 1.6 µg/mL | 100 µg/mL | 6.3 µg/mL | 0.8 µg/mL | 25 µg/mL | 0.8 µg/mL | 12.5 µg/mL | 1.6 µg/mL | > 200 µg/mL | 4.4 mg/kg | 25 mg/kg |  |
